Experimental data as given in the supplement of paper PMC4862054.
Where “and” joins values, the source holds several entries; their conditions need not be identical. Equal entries are not always repeated.

Legend:
[1] = test system: CAL-148; test: normalised viability (% of control), CellTiter-Blue; higher = more viable cells (about 100 = DMSO control); conditions: incubation time: 72 h
Protocol: (§1)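 DSRT, CellTiter-Blue viability, 72 h incubation. Signal is normalised to DMSO and benzethonium chloride controls. Value is the normalised response at dose 9.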

[2] = test system: CAL-51; test: as above; conditions: incubation time: 72 h
Protocol: as §1

[3] = test system: CAL-85-1; test: as above; conditions: incubation time: 72 h
Protocol: as §1

[4] = test system: DU-4475; test: as above; conditions: incubation time: 72 h
Protocol: as §1

[5] = test system: HDQ-P1; test: as above; conditions: incubation time: 72 h
Protocol: as §1

[6] = test system: MDA-MB-453; test: as above; conditions: incubation time: 72 h
Protocol: as §1

[7] = test system: CAL-85-1; test: normalised response (% of control), CellTiter-Glo; higher = more viable cells (100 = DMSO, 0 = benzethonium chloride kill control); conditions: incubation time: 72 h
Procedure, shortened: (§2)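 Two readouts were taken after 72 h: CellTox Green fluorescence (485/520 nm) first, then CellTiter-Glo luminescence after 10 min at room temperature. Breast cancer cell lines had been seeded as 20 µl suspension into 384-well plates holding compound at 5 concentrations in 10-fold steps across a compound-specific 10,000-fold range. Each value is a normalised signal at a single concentration, with plates scaled to 0.1 % DMSO (100) and a positive kill control (0).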

[8] = test system: HCC1143; test: as above; conditions: incubation time: 72 h
Procedure, shortened: as §2

[9] = test system: HCC1937; test: as above; conditions: incubation time: 72 h
Procedure, shortened: as §2

[10] = test system: Hs578T; test: as above; conditions: incubation time: 72 h
Procedure, shortened: as §2

[11] = test system: MDA-MB-231; test: as above; conditions: incubation time: 72 h
Procedure, shortened: as §2

[12] = test system: MDA-MB-468; test: as above; conditions: incubation time: 72 h
Procedure, shortened: as §2

[13] = test system: MFM-223; test: as above; conditions: incubation time: 72 h
Procedure, shortened: as §2

[14] = test system: BT-549; conditions: 72 h
Protocol: (§3)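 Drug sensitivity and resistance testing (DSRT) of breast cancer cell lines in 384-well plates, 5 concentrations in 10-fold dilutions over a compound-specific 10,000-fold range. After 72 h, cytotoxicity was read by CellTox Green fluorescence and viability by CellTiter-Glo luminescence (multiplexed), normalised to DMSO and benzethonium chloride controls. EC50 is the inflection point of the fitted dose-response curve (bottom asymptote free, so it can be relative for partial curves) and is censored at the highest tested concentration. Rows with DSS 0 (no meaningful response) were excluded.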

[15] = test system: Hs578T; conditions: 72 h
Protocol: as §3

[16] = test system: BT-474; conditions: 72 h
Protocol: as §3

[17] = test system: CAL-51; conditions: 72 h
Protocol: as §3

[18] = test system: MDA-MB-468; conditions: 72 h
Protocol: as §3

SMILES	normalised viability [1]	normalised viability [2]	normalised viability [3]	normalised viability [4]	normalised viability [5]	normalised viability [6]	normalised response [7] [%]	normalised response [8] [%]	normalised response [9] [%]	normalised response [10] [%]	normalised response [11] [%]	normalised response [12] [%]	normalised response [13] [%]	EC50, CellTox Green [14] [nM]	EC50, CellTox Green [15] [nM]	EC50, CellTox Green [16] [nM]	EC50, CellTox Green [17] [nM]	EC50, CellTox Green [18] [nM]
Cc1cc(Nc2nc(N[C@@H](C)c3ncc(F)cn3)ncc2Cl)[nH]n1 [AZD1480] (1000 nM)	100%	86.3%	88.4%	74.7%	137%	56.6%	96	92.7	96	82	78.2	84.6	50.8	–	–	–	–	–
CO[C@@H]1[C@H](N(C)C(=O)c2ccccc2)C[C@H]2O[C@]1(C)n1c3ccccc3c3c4c(c5c6ccccc6n2c5c31)C(=O)NC4 [Midostaurin] (10000 nM)	86.3%	4.73%	78.9%	3.76%	80.1%	61.4%	76	45.9	50.1	16.8	40.7	29.4	66.5	–	–	–	–	–
COc1ccc(S(=O)(=O)Nc2cccnc2Nc2ccc(O)cc2)cc1 [ABT-751] (10000 nM)	12.7%	6.42%	23.6%	6.9%	32.6%	20.6%	40.9	55.5	71.3	17.6	46.6	29.2	38.4	–	–	–	–	–
CCNC(=O)CCC/C=C\C[C@@H]1[C@@H](/C=C/[C@@H](O)CCc2ccccc2)[C@H](O)C[C@@H]1O [Bimatoprost] (5500 nM)	92.2%	114%	92.2%	107%	115%	106%	91.1	94.8	91.9	101	99.5	91.6	88.2	–	–	–	–	–
CC(C)(C)NC(=O)[C@H]1CC[C@H]2[C@@H]3CC[C@H]4NC(=O)C=C[C@]4(C)[C@H]3CC[C@]12C [Finasteride] (10000 nM)	36.5%	33.7%	51.9%	0.15%	135%	23%	96.5	96.6	97.8	99.9	102	102	93.4	–	–	–	–	–
CO[C@@]12[C@H](COC(N)=O)C3=C(C(=O)C(C)=C(N)C3=O)N1C[C@@H]1N[C@@H]12 [Mitomycin C] (10000 nM)	1.89%	4.34%	2.67%	-0.46%	42.6%	5.36%	57	71	73.3	91.1	82.5	22.5	86.5	–	–	–	–	–
CC(=O)[C@]1(O)Cc2c(O)c3c(c(O)c2[C@@H](O[C@H]2C[C@H](N)[C@H](O)[C@H](C)O2)C1)C(=O)c1ccccc1C3=O [Idarubicin] (1000 nM)	1.34%	1.95%	6.92%	0.02%	17%	11.6%	3.35	16.6	30.1	13.1	24.7	5.57	9.33	–	–	–	–	–
Nc1ccn([C@@H]2O[C@H](CO)[C@@H](O)C2(F)F)c(=O)n1 [Gemcitabine] (1000 nM)	0.25%	7.26%	5.03%	11.2%	100%	1.2%	40.5	38.9	85.8	74.9	79.5	22.1	97.7	–	–	–	–	–
Cn1cc(C2=C(c3cn(C4CCN(Cc5ccccn5)CC4)c4ccccc34)C(=O)NC2=O)c2ccccc21 [Enzastaurin] (10000 nM)	67.4%	89.8%	88.4%	86%	78.1%	51.9%	85.1	96.5	101	91	102	82.9	103	–	–	–	–	–
COc1cc(Nc2c(C#N)cnc3cc(OCCCN4CCN(C)CC4)c(OC)cc23)c(Cl)cc1Cl [Bosutinib] (10000 nM)	9.6%	11.1%	12.4%	4.38%	4.45%	4.44%	0.33	46.6	5.6	48.5	0.86	1.43	41.2	–	–	–	–	–
CC(C)C[C@H](NC(=O)[C@@H](COC(C)(C)C)NC(=O)[C@H](Cc1ccc(O)cc1)NC(=O)[C@H](CO)NC(=O)[C@H](Cc1c[nH]c2ccccc12)NC(=O)[C@H](Cc1cnc[nH]1)NC(=O)[C@@H]1CCC(=O)N1)C(=O)N[C@@H](CCCNC(=N)N)C(=O)N1CCC[C@H]1C(=O)NNC(N)=O [Goserelin] (10000 nM)	102%	109%	84.9%	104%	140%	89.8%	93.8	101	96	96.5	101	93.7	98.9	–	–	–	–	–
CC(O)(CS(=O)(=O)c1ccc(F)cc1)C(=O)Nc1ccc(C#N)c(C(F)(F)F)c1 (configuration not stated) [Bicalutamide] (10000 nM)	107%	112%	102%	121%	128%	100%	101	104	93.8	95.6	106	109	101	–	–	–	–	–
O=C(O)CNC(=O)c1c(O)c2ccccc2n(Cc2ccccc2)c1=O [IOX-2]	–	–	–	–	–	–	–	–	–	–	–	–	–	1170	–	–	–	–
O=C(CCCCCCC(=O)Nc1ccccc1)NO [Vorinostat] (10000 nM)	13.3% and 16%	59.7% and 50.3%	30.1% and 32.4%	50.1% and 46.5%	51.6% and 62.6%	3.12% and 2.8%	44.2	24.4	43.6	34	15	22	31.5	–	–	–	–	–
C=CCn1c(=O)c2cnc(Nc3ccc(N4CCN(C)CC4)cc3)nc2n1-c1cccc(C(C)(C)O)n1 [MK1775] (10000 nM)	5.88%	2.98%	17.4%	2.68%	16%	15.2%	11.4	17.5	28.3	22	23.7	6.6	36.1	–	–	–	–	–
Cc1cn(-c2cc(NC(=O)c3ccc(C)c(Nc4nccc(-c5cccnc5)n4)c3)cc(C(F)(F)F)c2)cn1 [Nilotinib]	–	–	–	–	–	–	–	–	–	–	–	–	–	–	> 10000	–	–	–
CC(C)C[C@H](NC(=O)[C@@H](COC(C)(C)C)NC(=O)[C@H](Cc1ccc(O)cc1)NC(=O)[C@H](CO)NC(=O)[C@H](Cc1c[nH]c2ccccc12)NC(=O)[C@H](Cc1cnc[nH]1)NC(=O)[C@@H]1CCC(=O)N1)C(=O)N[C@@H](CCCNC(=N)N)C(=O)N1CCC[C@H]1C(=O)NNC(N)=O [Goserelin]	–	–	–	–	–	–	–	–	–	–	–	–	–	–	–	> 10000	–	–
C/C(=C\c1csc(C)n1)[C@@H]1C[C@@H]2O[C@]2(C)CCC[C@H](C)[C@H](O)[C@@H](C)C(=O)C(C)(C)[C@@H](O)CC(=O)N1 [Ixabepilone] (1000 nM)	20.9%	57.9%	36.9%	21.5%	37%	5.47%	26.1	97.6	104	99	73.8	23	101	–	–	–	–	–
CNC(=O)c1ccccc1Sc1ccc2c(/C=C/c3ccccn3)n[nH]c2c1 [Axitinib] (10000 nM)	42.1%	37.3%	67.2%	21.1%	67.3%	46.2%	120	79	79.2	61.4	94.5	24.5	49.3	–	–	–	–	–
CCNC(=O)c1noc(-c2cc(C(C)C)c(O)cc2O)c1-c1ccc(CN2CCOCC2)cc1 [NVP-AUY922] (1000 nM)	18.6%	8.3%	26.6%	2.34%	32.7%	7.53%	21	38	28.3	35.6	24.9	22.6	36.3	–	–	–	–	–
CN(C)C(=N)NC(=N)N [Metformin]	–	–	–	–	–	–	–	–	–	–	–	–	–	–	–	–	100	710
Cc1cn(-c2cc(NC(=O)c3ccc(C)c(Nc4nccc(-c5cccnc5)n4)c3)cc(C(F)(F)F)c2)cn1 [Nilotinib] (10000 nM)	89.7% and 84.6%	103% and 100%	86.3% and 84.9%	102% and 86.8%	84.2% and 86.2%	106% and 94.7%	104	93	96.8	97.1	92.9	101	97.2	–	–	–	–	–
CC1(C)CCC(c2ccc(Cl)cc2)=C(CN2CCN(c3ccc(C(=O)NS(=O)(=O)c4ccc(N[C@H](CCN5CCOCC5)CSc5ccccc5)c(S(=O)(=O)C(F)(F)F)c4)cc3)CC2)C1 [Navitoclax] (10000 nM)	66.7%	77%	71.3%	4.02%	60.2%	52.7%	86.2	77.8	56.9	79.3	16.1	78	55.6	–	–	–	–	–
